We go through one molecule from publication PMC4490394 (Scientific Reports, 2015).

Where “and” joins values, the source holds several entries; their conditions need not be identical. Identical values can stand only once.

One series has as its system PSA. The note with it: chemotherapy-naïve CRPC patients, 700 mg twice daily, ARADES study ref 28; cited from earlier work.
Another series addresses T1, AR(W741L) (Homo sapiens, UniProt P10275, W742L).
T1 sequence (P10275 1-920 W742L): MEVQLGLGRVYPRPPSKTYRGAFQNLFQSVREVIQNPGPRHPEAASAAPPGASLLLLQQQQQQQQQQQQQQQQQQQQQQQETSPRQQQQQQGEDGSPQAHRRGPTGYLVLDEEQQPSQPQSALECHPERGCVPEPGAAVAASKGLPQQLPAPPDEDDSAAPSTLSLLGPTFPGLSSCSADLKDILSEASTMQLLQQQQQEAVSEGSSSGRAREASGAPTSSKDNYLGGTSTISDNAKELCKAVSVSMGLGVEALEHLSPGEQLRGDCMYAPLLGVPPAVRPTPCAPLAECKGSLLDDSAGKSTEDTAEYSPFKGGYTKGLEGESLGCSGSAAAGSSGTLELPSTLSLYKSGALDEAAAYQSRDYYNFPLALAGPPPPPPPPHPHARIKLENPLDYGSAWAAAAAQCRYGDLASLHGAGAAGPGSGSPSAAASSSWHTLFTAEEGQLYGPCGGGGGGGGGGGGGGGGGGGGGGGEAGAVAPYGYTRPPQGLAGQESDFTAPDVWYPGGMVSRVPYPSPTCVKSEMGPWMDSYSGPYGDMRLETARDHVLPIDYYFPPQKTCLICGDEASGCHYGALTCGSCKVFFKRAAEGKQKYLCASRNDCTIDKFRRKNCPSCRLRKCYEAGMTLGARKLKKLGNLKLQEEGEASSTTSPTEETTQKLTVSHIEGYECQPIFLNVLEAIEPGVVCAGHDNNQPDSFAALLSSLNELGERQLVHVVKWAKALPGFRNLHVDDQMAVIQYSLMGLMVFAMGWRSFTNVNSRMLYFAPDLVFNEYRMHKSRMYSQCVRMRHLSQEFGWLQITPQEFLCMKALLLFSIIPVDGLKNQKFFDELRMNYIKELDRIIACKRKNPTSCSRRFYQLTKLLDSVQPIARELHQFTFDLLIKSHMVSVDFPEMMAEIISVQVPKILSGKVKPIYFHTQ

A short description of series [1]: Body weight of mice bearing subcutaneous VCaP xenograft tumors. The series is classed as in vivo, castrated nude mice. The note with it: for Change in body weight (%) d 3 / Change in body weight (%) d 9 / Change in body weight (%) d 16 / Change in body weight (%) d 23 / Change in body weight (%) d 30 / Change in body weight (%) d 37: individual animals, vs BW before treatment, 50 mg/kg. The procedure:
BALB/c nude male mice (7 weeks old from Charles River, Germany) were subcutaneously injected with 2 million VCaP cells in 100 μL of RPMI-1640 medium and Matrigel (BD) (1:1). Tumor growth was monitored twice weekly by caliper measurements. The volume of the tumor was calculated according to the formula W^2 × L/2 (mm^3), where W is the shorter and L the longer diameter of the tumor. When the average tumor volume reached ~200 mm^3, mice were castrated or SHAM-operated under Avertin anesthesia. […] For all in vivo studies, Macrocol® (Merck) + propylene glycol +5% glucose (50:30:20, v/v/v) was used as a vehicle.

The test system of the next series is H1581 lung cancer cells. Put plainly: Viability of AR-negative cells (WST-1). The series is classed as cell-based, human. To be noted: increasing concentrations, 4 days. For orientation: Formazan colour is commonly taken as a measure of viable cells.
A short description of series [2]: Pharmacokinetic parameters in mice after 7 days oral dosing. The series is classed as in vivo. To be noted: male, BALB/c or Balb/cOlaHsd nude, mouse, plasma, 50 mg/kg bid oral. The procedure: Control mice received vehicle. […] Brain samples (without olfactory bulbs and medulla oblongata) from each group and time point were pooled and homogenized before the analysis. […] Plasma and brain concentration vs. time were evaluated by noncompartmental analysis using WinNonlin® Professional v. 5.2 software (Pharsight Corporation). Brain/plasma ratios were calculated based on AUC0–24 values for plasma and brain.

For the molecule `CC(O)c1cc(C(=O)N[C@@H](C)Cn2ccc(-c3ccc(C#N)c(Cl)c3)n2)[nH]n1` (stereo partly drawn) [ODM-201], the “PSA response (50% or greater decrease), share of patients” value in the series on PSA is on record as 86%. Moreover, the “functional activity (agonist/antagonist) on AR(W741L)” value at AR(W741L) is “full antagonists”. For the same molecule, the “body weights during the treatment” value in series [1] (50 mg/kg twice daily oral, 37 days) is on record as “did not decrease significantly”. Further, in series [1] (ODM-201 50 mg/kg bid oral), the “Change in body weight (%) d 3” value is -0.4% and 0.0% and -2.8% and -1.9% and -1.3% and -4.9% and -2.9%; the “Change in body weight (%) d 9” value is -2.1% and -2.5% and -9.8% and -0.9% and -0.5% and -4.5% and -6.9% and -1.9%; the “Change in body weight (%) d 16” value is 1.7% and -4.9% and 5.6% and 3.3% and 0.4% and -4.5% and -1.0%; the “Change in body weight (%) d 23” value was -1.7% and -6.5% and -2.8% and 0.5% and -5.4% and -11.4% and -7.2%. In series [1] (ODM-201 50 mg/kg bid oral), the “Change in body weight (%) d 30” value was -1.3% and 0.8% and -6.1% and -3.8% and 3.8% and -3.6% and -1.6% and -3.4%; the “Change in body weight (%) d 37” value was 0.4% and -6.1% and -0.5% and -6.7% and -1.2% and -6.3%. In series [1] (ODM-201 50 mg/kg qd oral), the “Change in body weight (%) d 3” value was -2.5% (2×) and -1.3% and -2.0% and -2.9% and -0.5% and -2.3% and -3.8% and -4.7% and 9.0%; the “Change in body weight (%) d 9” value was 2.2% and -1.7% and 3.5% and 6.9% and -4.9% and 3.9% and 1.8% and -0.8% and -7.7% and 7.5%; the “Change in body weight (%) d 16” value is -1.3% and 3.0% and 14.7% and 2.5% and -5.7% and 6.9% and 0.5% and 3.8% and 1.3% and 9.5%; the “Change in body weight (%) d 23” value was 6.0% and -8.2% and 4.4% and -4.9% and -1.3% and -0.5% and 0.9% and -0.4%. Besides, in series [1] (ODM-201 50 mg/kg qd oral), the “Change in body weight (%) d 30” value is 1.5% and -3.9% and 2.5% and 8.3% and -4.1% and 2.0% and 1.8% and 0.0% and -0.4%; the “Change in body weight (%) d 37” value is 5.0% and -6.5% and 1.5% and 6.9% and -7.8% and 2.5% and 1.8% and -0.8% and -4.6%. Besides, in the series with H1581 lung cancer cells, the “effect on viability of H1581 cells” value is “no effect”. Also, in series [2] (read-out: AUC24), the AUC stood at 175 µg·h/mL. Besides, in series [2] (read-out: T 1/2 (plasma half-life) (converted)), the half-life is 1.6 h.
